Values after ≈ are worked out from the molar mass of the structure shown. Active and inactive are the calls of the source. No cut-off for these calls is given here.
Tests used:
Streptococcus mutans [1] = assay: Antibacterial activity against Streptococcus mutans MTCC 497 assessed as zone of inhibition at 100 ug/well measured after 24 hrs by agar well diffusion method; type: functional; settings: MTCC 497, 24 h, read-out: DIZ
Micrococcus luteus [2] = assay: Antibacterial activity against Micrococcus luteus MTCC 106 assessed as zone of inhibition at 100 ug/well measured after 24 hrs by agar well diffusion method; type: functional; settings: MTCC 106, 24 h, read-out: DIZ
Staphylococcus aureus [3] = assay: Antibacterial activity against Staphylococcus aureus MTCC 3160 assessed as zone of inhibition at 100 ug/well measured after 24 hrs by agar well diffusion method; type: functional; settings: MTCC 3160, 24 h, read-out: DIZ
Salmonella paratyphi [4] = assay: Antibacterial activity against Salmonella paratyphi assessed as zone of inhibition at 100 ug/well measured after 24 hrs by agar well diffusion method; type: functional, Salmonella enterica subsp. enterica serovar Paratyphi A; settings: Salmonella enterica, read-out: DIZ
Salmonella typhi [5] = assay: Antibacterial activity against Salmonella typhi assessed as zone of inhibition at 100 ug/well measured after 24 hrs by agar well diffusion method; type: functional, Salmonella enterica subsp. enterica serovar Typhi; settings: Salmonella enterica, read-out: DIZ
Klebsiella pneumoniae [6] = assay: Antibacterial activity against Klebsiella pneumoniae MTCC 3384 assessed as zone of inhibition at 100 ug/well measured after 24 hrs by agar well diffusion method; type: functional; settings: MTCC 3384, 24 h, read-out: DIZ
Candida albicans [7] = assay: Antifungal activity against Candida albicans MTCC 3017 assessed as zone of inhibition at 100 ug/well measured after 48 hrs by agar well diffusion method; type: functional; settings: MTCC 3017, 48 h, read-out: DIZ
Aspergillus fumigatus [8] = assay: Antifungal activity against Aspergillus fumigatus MTCC 343 assessed as zone of inhibition at 100 ug/well measured after 48 hrs by agar well diffusion method; type: functional; settings: MTCC 343, 48 h, read-out: DIZ
Streptococcus mutans [9] = assay: Antibacterial activity against Streptococcus mutans MTCC 497 measured after 24 hrs by NCCL protocol based broth dilution method; type: functional; settings: MTCC 497, 24 h
Micrococcus luteus [10] = assay: Antibacterial activity against Micrococcus luteus MTCC 106 measured after 24 hrs by NCCL protocol based broth dilution method; type: functional; settings: MTCC 106, 24 h
Staphylococcus aureus [11] = assay: Antibacterial activity against Staphylococcus aureus MTCC 3160 measured after 24 hrs by NCCL protocol based broth dilution method; type: functional; settings: MTCC 3160, 24 h
Salmonella paratyphi [12] = assay: Antibacterial activity against Salmonella paratyphi measured after 24 hrs by NCCL protocol based broth dilution method; type: functional, Salmonella enterica subsp. enterica serovar Paratyphi A
Salmonella typhi [13] = assay: Antibacterial activity against Salmonella typhi measured after 24 hrs by NCCL protocol based broth dilution method; type: functional, Salmonella enterica subsp. enterica serovar Typhi
Klebsiella pneumoniae [14] = assay: Antibacterial activity against Klebsiella pneumoniae MTCC 3384 measured after 24 hrs by NCCL protocol based broth dilution method; type: functional
Candida albicans [15] = assay: Antifungal activity against Candida albicans MTCC 3017 measured after 48 hrs by NCCL protocol based broth dilution method; type: functional; settings: MTCC 3017, 48 h
Aspergillus fumigatus [16] = assay: Antifungal activity against Aspergillus fumigatus MTCC 343 measured after 48 hrs by NCCL protocol based broth dilution method; type: functional

| Compound | zone of inhibition at 100 µg/disc (Streptococcus mutans [1]) | zone of inhibition at 100 µg/disc (Micrococcus luteus [2]) | zone of inhibition at 100 µg/disc (Staphylococcus aureus [3]) | zone of inhibition at 100 µg/disc (Salmonella paratyphi [4]) | zone of inhibition at 100 µg/disc (Salmonella typhi [5]) | zone of inhibition at 100 µg/disc (Klebsiella pneumoniae [6]) | zone of inhibition at 100 µg/disc (Candida albicans [7]) | zone of inhibition at 100 µg/disc (Aspergillus fumigatus [8]) | MIC (Streptococcus mutans [9]) | MIC (Micrococcus luteus [10]) | MIC (Staphylococcus aureus [11]) | MIC (Salmonella paratyphi [12]; Salmonella enterica) | MIC (Salmonella typhi [13]; Salmonella enterica) | MIC (Klebsiella pneumoniae [14]; MTCC 3384, 24 h) | MIC (Candida albicans [15]) | MIC (Aspergillus fumigatus [16]; MTCC 343, 48 h) | MIC (Salmonella paratyphi [12]; Salmonella enterica subsp. enterica serovar Paratyphi A) | MIC (Salmonella typhi [13]; Salmonella enterica subsp. enterica serovar Typhi) | MIC (Klebsiella pneumoniae [14]) | MIC (Aspergillus fumigatus [16]) |
| --- | --- | --- | --- | --- | --- | --- | --- | --- | --- | --- | --- | --- | --- | --- | --- | --- | --- | --- | --- | --- |
| COc1ccc(/N=C/c2ccc(B3OC[C@H]4O[C@@H]5OC(C)(C)O[C@@H]5[C@H]4O3)cc2)cc1 | 12 mm | 11 mm | 11 mm | 13 mm | 19 mm | 18 mm | 17 mm | 0 mm | 250 µg/mL (≈ 611 µM) | 250 µg/mL (≈ 611 µM) | 500 µg/mL (≈ 1220 µM) | 250 µg/mL (≈ 611 µM) | 125 µg/mL (≈ 305 µM) | 125 µg/mL (≈ 305 µM) | 125 µg/mL (≈ 305 µM) | 500 µg/mL (≈ 1220 µM) |  |  |  |  |
| CC1(C)O[C@H]2O[C@@H]3COB(c4ccccc4C=O)O[C@@H]3[C@H]2O1 | 20 mm | 18 mm | 20 mm | 21 mm | 26 mm | 27 mm | 26 mm | 25 mm | 62.5 µg/mL (≈ 206 µM) | 62.5 µg/mL (≈ 206 µM) | 62.5 µg/mL (≈ 206 µM) | 31.2 µg/mL (≈ 103 µM) | 31.2 µg/mL (≈ 103 µM) | 15.6 µg/mL (≈ 51.4 µM) | 31.2 µg/mL (≈ 103 µM) | 31.2 µg/mL (≈ 103 µM) |  |  |  |  |
| CC1(C)O[C@H]2O[C@@H]3COC(c4ccc(/C=N\c5ccc(F)cc5)cc4)O[C@@H]3[C@H]2O1 (stereo partly specified) | 6 mm | 0 mm | 8 mm | 0 mm | 0 mm | 0 mm | 6 mm | 0 mm | 250 µg/mL (≈ 626 µM) | 500 µg/mL (≈ 1250 µM) | 500 µg/mL (≈ 1250 µM) |  |  |  | 500 µg/mL (≈ 1250 µM) |  | inactive | inactive | inactive | inactive |
| CC1(C)O[C@H]2O[C@@H]3COB(c4cccc(C=O)c4)O[C@@H]3[C@H]2O1 | 22 mm | 12 mm | 15 mm | 18 mm | 18 mm | 19 mm | 11 mm | 0 mm | 62.5 µg/mL (≈ 206 µM) | 250 µg/mL (≈ 822 µM) | 250 µg/mL (≈ 822 µM) | 62.5 µg/mL (≈ 206 µM) | 62.5 µg/mL (≈ 206 µM) | 62.5 µg/mL (≈ 206 µM) | 250 µg/mL (≈ 822 µM) | 500 µg/mL (≈ 1640 µM) |  |  |  |  |
| OB(O)c1ccc(/C=N/c2ccc(F)cc2)cc1 | 11 mm | 0 mm | 9 mm | 0 mm | 9 mm | 0 mm | 0 mm | 0 mm | 250 µg/mL (≈ 1030 µM) | 500 µg/mL (≈ 2060 µM) | 500 µg/mL (≈ 2060 µM) | 500 µg/mL (≈ 2060 µM) | 500 µg/mL (≈ 2060 µM) | 500 µg/mL (≈ 2060 µM) | 500 µg/mL (≈ 2060 µM) | 500 µg/mL (≈ 2060 µM) |  |  |  |  |
| CC(C)c1ccc(/N=C/c2ccc(B3OC[C@H]4O[C@@H]5OC(C)(C)O[C@@H]5[C@H]4O3)cc2)cc1 | 19 mm | 13 mm | 16 mm | 0 mm | 22 mm | 24 mm | 12 mm | 0 mm | 125 µg/mL (≈ 297 µM) | 250 µg/mL (≈ 593 µM) | 125 µg/mL (≈ 297 µM) | 500 µg/mL (≈ 1190 µM) | 62.5 µg/mL (≈ 148 µM) | 31.2 µg/mL (≈ 74.2 µM) | 250 µg/mL (≈ 593 µM) | 500 µg/mL (≈ 1190 µM) |  |  |  |  |

Source: ChEMBL document CHEMBL3822364, “Synthesis, characterization and antimicrobial activity of novel Schiff base tethered boronate esters of 1,2-O-isopropylidene-α-d-xylofuranose” (2016)
